Assay results from article PMC8985489 (Alzheimer's & Dementia : Translational Research & Clinical …, 2022).

Legend:
[1] = tested on: IL-1β production and release from microglia; test: IL-1β production and release from microglia; type: cell-based; conditions: at 50 and 100 μM
[2] = target: T1, Aβ1-40 (Homo sapiens, UniProt P05067); test: Circular dichroism; type: biochemical
[3] = target: T1, Aβ1-40; test: Thioflavin T; type: biochemical
[4] = tested on: IDO-1; conditions: cited from earlier work
[5] = tested on: SK-N-AS neuroblastoma cells; test: Aβ production in mammalian cells; type: cell-based, human; conditions: SK-N-AS incubated with 1 μg/ml, within 3 h
[6] = target: biotinylated Aβ1-42 (Homo sapiens, UniProt P05067); test: Aβ anti-oligomerization assay; type: biochemical
[7] = target: Human Recombinant IDO-1 (Homo sapiens, UniProt P14902); test: HR-IDO-1 enzymatic inhibition assay; type: biochemical
[8] = target: INF-γ-induced IDO-1 activity (Homo sapiens, UniProt P14902); test: INF-γ-induced IDO-1 activity; type: cell-based
Sequence of INF-γ-induced IDO-1 activity (P14902 whole entry): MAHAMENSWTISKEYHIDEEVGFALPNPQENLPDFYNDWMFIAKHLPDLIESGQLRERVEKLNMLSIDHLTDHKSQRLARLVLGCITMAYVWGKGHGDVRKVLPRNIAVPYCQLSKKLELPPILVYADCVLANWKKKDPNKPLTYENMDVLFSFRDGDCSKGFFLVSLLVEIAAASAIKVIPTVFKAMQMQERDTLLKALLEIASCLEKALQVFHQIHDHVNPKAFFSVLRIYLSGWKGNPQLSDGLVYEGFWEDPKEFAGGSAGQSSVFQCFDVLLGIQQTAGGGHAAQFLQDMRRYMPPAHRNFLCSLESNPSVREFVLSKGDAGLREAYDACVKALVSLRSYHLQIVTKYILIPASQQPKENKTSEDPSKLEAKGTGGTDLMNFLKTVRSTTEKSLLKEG

T1 sequence (P05067 672-711 limits assumed): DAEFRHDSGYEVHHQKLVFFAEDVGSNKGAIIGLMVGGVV
Sequence of biotinylated Aβ1-42 (P05067 672-713): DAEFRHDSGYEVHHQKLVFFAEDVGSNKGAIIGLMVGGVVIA
Sequence of Human Recombinant IDO-1 (P14902 whole entry): as the sequence (P14902 whole entry) above

Row | Compound | Aβ anti-aggregant activity in CD assay [2] | Aβ anti-aggregant activity in ThT assay [3] | other results
1 | NCCc1c[nH]c2ccc(O)cc12 [5‐hydroxytryptamine] | – | – | IL-1β production and release from microglia [1]: modulated
2 | O=C(O)/C=C/c1ccc(O)cc1 [4‐coumarate] | exhibited Aβ anti‐aggregant activities | exhibited Aβ anti‐aggregant activities | –
3 | COc1cc(/C=C/C(=O)O)ccc1O [ferulate] | exhibited Aβ anti‐aggregant activities | exhibited Aβ anti‐aggregant activities | IDO-1 enzymatic activity [4]: shown to inhibit IDO‐1 enzymatic activity
4 | tannate | exhibited Aβ anti‐aggregant activities | exhibited Aβ anti‐aggregant activities | –
5 | O=C(O)c1ccccc1O [salicylate] | exhibited Aβ anti‐aggregant activities | exhibited Aβ anti‐aggregant activities | –
6 | lipoteichoic acid [LTA] | – | – | Aβ concentrations in the cell lysate [5]: 800 pg/mL
7 | O=C(O)/C=C/c1ccc(O)c(O)c1 [caffeiate] | exhibited Aβ anti‐aggregant activities | exhibited Aβ anti‐aggregant activities | –
8 | N[C@@H](Cc1c[nH]c2ccccc12)C(=O)O [tryptophan] | – | – | activity in initial screen against Aβ aggregation ([6]; biotinylated Aβ1-42 anti-oligomerization screen): inactive; activity in initial screen against Aβ aggregation ([3]; kinetic ThT Aβ1-40 anti-aggregation screen): inactive
9 | COc1ccc2[nH]cc(/C=C/c3ccc(O)cc3)c2c1 [4b, (E)‐4‐(2‐[5‐methoxy‐1H‐indol‐3‐yl]vinyl)phenol] | – | – | IC50 [7]: 2.8 µM; IC50 [8]: 10.8 µM; IC50 [6]: 6.5 µM
10 | lipopolysaccharide [LPS] | – | – | Aβ concentrations in the cell lysate [5]: 800 pg/mL
11 | Oc1ccc(/C=C/c2cc(O)cc(O)c2)cc1 [resveratrol] | exhibited Aβ anti‐aggregant activities | exhibited Aβ anti‐aggregant activities | –
12 | COc1cc(/C=C/C(=O)O)cc(OC)c1O [sinapate] | exhibited Aβ anti‐aggregant activities | exhibited Aβ anti‐aggregant activities | –
